The first experiment concerns the target human GPR120 (Homo sapiens (Human), UniProt Q5NUL3). Put plainly: GPR120 pERK AlphaScreen SureFire Assay (human GPR120 pERK assay). Type of experiment: cell-based. As to conditions: CHO cells stably transfected with short form of human GPR120. The procedure, abridged:
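CHOA12 cells stably expressing short-form human GPR120, serum-starved 2 h, then stimulated 7 min at 37° C with compound (33.33 μM to 0.56 nM, 11-point). Phospho-ERK1/2 read by AlphaScreen SureFire in lysates. Activation scaled between DMSO and 50 μM linolenic acid; EC50 from a 4-parameter logistic fit.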
On the technique in general: Bead proximity is the source of the signal in Alpha formats.
Chain of human GPR120 (Q5NUL3 whole entry): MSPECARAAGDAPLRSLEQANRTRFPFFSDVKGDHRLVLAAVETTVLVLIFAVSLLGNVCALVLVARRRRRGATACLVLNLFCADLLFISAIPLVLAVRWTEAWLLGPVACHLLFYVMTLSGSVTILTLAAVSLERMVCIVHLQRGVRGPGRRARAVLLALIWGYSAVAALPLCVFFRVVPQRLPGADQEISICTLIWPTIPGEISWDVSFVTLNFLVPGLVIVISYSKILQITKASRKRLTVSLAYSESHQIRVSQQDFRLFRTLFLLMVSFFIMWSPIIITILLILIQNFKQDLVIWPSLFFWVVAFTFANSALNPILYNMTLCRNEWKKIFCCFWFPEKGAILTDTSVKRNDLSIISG
Consider `O=C(O)[C@H]1C[C@@H]1COc1ccc(-c2cc(Oc3cccc(F)c3)cc(F)c2F)cc1F` (single isomer, unassigned) [Example 105], for which it took 0.14 µM to reach a half-maximal effect (EC50). This counts as sub-micromolar.
On the same count and under the same terms, in the case of `CC(C)Oc1cc(Cl)cc(-c2ccc(OC[C@@H]3C[C@H]3C(=O)O)c(F)c2)c1` (single isomer, unassigned) [Example 13] it was 0.64 µM.
Consider `CC(C)Oc1ccc(F)c(-c2ccc(OC[C@H]3C[C@H]3C(=O)O)cc2)c1` (single isomer, unassigned) [Example 7], for which the EC50 stood at 2.81 µM. Against the preceding compound, the EC50 is about 4.4-fold higher.
Still for that read-out and setting: in the case of `CC(C)Oc1cc(-c2ccc(OC[C@@H]3C[C@H]3C(=O)O)cc2)cc(C(F)(F)F)c1` (racemic) [Example 47, Trans-2-(((3′-isopropoxy-5′-(trifluoromethyl)-[1,1′-biphenyl]-4-yl)oxy)methyl)cyclopropanecarboxylic acid] it was 2.04 µM; in that of `CC(C)Oc1ccc(F)c(-c2ccc(OC[C@@H]3C[C@H]3C(=O)O)c(CC=O)c2)c1` (racemic) [Example 90, Trans-2-(((2′-fluoro-5′-isopropoxy-3-(2-oxoethyl)-[1,1′-biphenyl]-4-yl)oxy)methyl) cyclopropanecarboxylic acid], 0.93 µM; in that of `CC(C)Oc1cc(F)c(F)c(-c2ccc(OC[C@@H]3C[C@H]3C(=O)O)cc2F)c1` (racemic) [Example 61, Trans-2-(((2,2′,3′-trifluoro-5′-isopropoxy-[1,1′-biphenyl]-4-yl)oxy)methyl)cyclopropanecarboxylic acid], 2.78 µM.

Another experiment deals with C57BL/6 mice. Put plainly: Acute Oral Glucose Tolerance Test. It is filed as in vivo. The following applies: dosed at 30 mg/kg orally 60 min before glucose challenge (2 g/kg), AUC t=0-120 min compared to vehicle. As for the experimental part: In Vivo GPR120 Assays 1) Acute Oral Glucose Tolerance Test
C57BL/6 mice were housed individually and fed a standard rodent chow diet. At approximately 11 weeks age, after a 5 h fast, these mice were orally treated with vehicle or test compounds 60 min before a glucose challenge (2 g/kg). Blood glucose levels were determined from tail bleeds taken at −60, 0, 15, 30, 60 and 120 min after the glucose challenge. […] This AUC for compound treatment is compared to vehicle treatment.
For the compound `O=C(O)[C@H]1C[C@@H]1COc1ccc(-c2cc(Oc3cccc(F)c3)cc(F)c2F)cc1F` (single isomer, unassigned) [Example 105], the “reduced glucose AUC” value turned out to be 55%.

Usually EC50 stands for the concentration needed to bring the measured effect to its halfway point. High values mean a need for much substance, low ones an effect from little substance.

For the origin of these results see patent US9938222B2 (BRISTOL-MYERS SQUIBB COMPANY, priority 2014, dated 2018).
